This assay has as its system trabecular meshwork (TM) scarring in glaucomatous eyes. Description: TGF-β induced glaucoma in rats, trabecular meshwork scarring (laminin, fibronectin immunohistochemistry). Format: in vivo, Sprague Dawley rats. On the procedure: Glaucoma was induced in adult male Sprague Dawley rats by repeat twice weekly intracameral (IC) injections of transforming growth factor-β (TGF-β) to increase intraocular pressure (IOP). Sustained increases in IOP (after two weeks) leads to death of retinal ganglion cells (30-40%). LMW-DS was administered at 15 mg/kg by daily subcutaneous injection […] to assess RGC protection compared to controls.
Group 1 n=12 rats; 24 eyes […] TGF-β (twice weekly for 28 days) between day 0 and day 28+ daily subcutaneous administration of dextran sulfate from day 14 to day 28.
Group 2 n=8 rats; 16 eyes IOP+IC TGF-β (twice weekly for 28 days) between day 0 and day 28+ daily subcutaneous administration of vehicle (saline) from day 14 to day 28.
Measured End-Points • IOP twice weekly throughout study from day 0 to day 28; • Immunohistochemistry for counting retinal ganglion cell (RGC) that are immunoreactive for brain-specific homeobox/POU domain protein 3A (Brn3a) at day 28 (RGC survival); • Immunohistochemistry for laminin and fibronectin to evaluate scarring in the trabecular meshwork at day 28 in Groups 1 and 2; • Anterior segment and optical coherence tomography (OCT) imaging at day 28 to examine the angle and the thickness of the retinal nerve fiber layer comprising RGC axons; and • Body weight at day 28. […]

As to “low molecular weight dextran sulfate [LMW-DS]”, the “immunoreactive laminin in the angle (TM scarring) vs saline” value (15 mg/kg daily s.c. day 14 to day 28, P<0.001) is given as “significantly reduced”. The “immunoreactive fibronectin in the angle (TM scarring) vs saline” value (15 mg/kg daily s.c. day 14 to day 28, P<0.01) was “significantly reduced”.
